Ends that are not written are not given here.

Usually EC50 stands for the concentration that produces a half-maximal response.

Assay [1] deals with T1, rat ASIC3 (rASIC3) (Rattus norvegicus, UniProt O35240).
T1 sequence (O35240 1-533): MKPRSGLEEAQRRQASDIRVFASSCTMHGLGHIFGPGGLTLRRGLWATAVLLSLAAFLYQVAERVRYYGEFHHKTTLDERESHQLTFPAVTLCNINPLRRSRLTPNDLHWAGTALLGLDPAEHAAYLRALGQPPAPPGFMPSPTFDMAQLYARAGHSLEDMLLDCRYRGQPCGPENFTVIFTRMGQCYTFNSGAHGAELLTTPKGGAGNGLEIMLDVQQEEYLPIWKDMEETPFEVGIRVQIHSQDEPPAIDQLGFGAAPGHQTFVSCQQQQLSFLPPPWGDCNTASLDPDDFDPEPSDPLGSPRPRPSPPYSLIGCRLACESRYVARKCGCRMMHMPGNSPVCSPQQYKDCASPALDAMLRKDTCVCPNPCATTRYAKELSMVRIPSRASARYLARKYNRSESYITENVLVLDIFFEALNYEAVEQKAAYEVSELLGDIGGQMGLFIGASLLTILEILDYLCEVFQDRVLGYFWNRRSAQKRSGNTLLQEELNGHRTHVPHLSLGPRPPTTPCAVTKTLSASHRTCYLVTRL
Put plainly: whole-cell patch clamp, HEK293, potentiation of pH5.5-evoked sustained current. The assay is classed as cell-based. The settings on record: peptide applied in pH 7.4 resting solution, pH 5.5 pulse; positive modulator. On the technique in general: Patch clamp records ionic current or voltage across a cell membrane.

Assay [2] concerns the target T1, rat ASIC3 (rASIC3). Description: whole-cell patch clamp, HEK293, pH5.5-evoked sustained current at […] s. The settings on record: peptide in pH 7.4 resting solution, pH 5.5 pulse, -50 mV. The assay is classed as cell-based.

Turning to “FRCRCF-NH2 (cysteine pairing not given here)”, the EC50 in assay [1] is 4.41 ± 0.95 µM.

As to FRC̄R̄C̄Famide, the “Mean fold increase (I/Ictrl)” value in assay [2] turned out to be 34.08 fold.

“FRCCRF-NH2 (cysteine pairing not given here)”: the EC50 in assay [1] was determined as 4.73 ± 0.8 µM.

Take FRC̄C̄RFamide: the “Mean fold increase (I/Ictrl)” value in assay [2] is recorded as 24.22 fold.

The values above are taken from paper doi:10.1101/2025.07.16.665058v1 (biorxiv, 2025).
